How the values were obtained:
Format in all cases: in vivo
[1] = test system: oat, wild (wild oat, Avena fatua); test: Test C greenhouse herbicide test, postemergence
Procedure, shortened: (§1)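 Steps: pot plants in peat-based medium; spray postemergence at 1- to 4-leaf stage; hold in greenhouse 13 to 15 d; score visually against controls from 0 (no effect) to 100 (complete control).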

[2] = test system: chickweed (common chickweed, Stellaria media); test: Test C greenhouse herbicide test, postemergence
Procedure, shortened: as §1

[3] = test system: kochia (Kochia scoparia); test: Test C greenhouse herbicide test, postemergence
Procedure, shortened: as §1

[4] = test system: barnyardgrass (Echinochloa crus-galli); test: Test B flooded paddy test; settings: 250 g ai/ha, Flood, visual rating on scale of 0 to 100 where 0 is no effect and 100 is complete control, 13 to 15 d after treatment
Procedure, shortened: (§2)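 Plants grown to the 2-leaf stage. At treatment, pots were flooded to 3 cm above the soil, compound was applied directly to the paddy water, and that depth was held throughout. After 13 to 15 d in the greenhouse, response was rated visually against controls on a 0 (no effect) to 100 (complete control) scale.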

[5] = test system: rice (Oryza sativa); test: Test B flooded paddy test; settings: 250 g ai/ha, Flood, visual rating on scale of 0 to 100 where 0 is no effect and 100 is complete control, 13 to 15 d after treatment
Procedure, shortened: as §2

[6] = test system: ducksalad (Heteranthera limosa); test: Test B flooded paddy test; settings: 250 g ai/ha, Flood, visual rating on scale of 0 to 100 where 0 is no effect and 100 is complete control, 13 to 15 d after treatment
Procedure, shortened: as §2

[7] = test system: sedge, umbrella (small-flower umbrella sedge, Cyperus difformis); test: Test B flooded paddy test; settings: 250 g ai/ha, Flood, visual rating on scale of 0 to 100 where 0 is no effect and 100 is complete control, 13 to 15 d after treatment
Procedure, shortened: as §2

[8] = test system: johnsongrass (Sorghum halepense); test: Test C greenhouse herbicide test, pre- and postemergence
Source text: (§3) Seeds of plant species selected from blackgrass (Alopecurus myosuroides), ryegrass, Italian (Italian ryegrass, Lolium multiflorum), wheat (winter wheat, Triticum aestivum), galium (catchweed bedstraw, Galium aparine), corn (Zea mays), large crabgrass, large (large crabgrass, Digitaria sanguinalis), foxtail, giant (giant foxtail, Setaria faberii), johnsongrass (Sorghum halepense), lambsquarters (Chenopodium album), morningglory (Ipomoea coccinea), nutsedge, yellow (yellow nutsedge, Cyperus esculentus), pigweed (Amaranthus retroflexus), ragweed (common ragweed, Ambrosia elatior), soybean (Glycine max), barnyardgrass (Echinochloa crus-galli), oilseed rape (Brassica napus), waterhemp (common waterhemp, Amaranthus rudis), and velvetleaf (Abutilon theophrasti) were planted into a blend of loam soil and sand and treated preemergence with test chemicals formulated in a non-phytotoxic solvent mixture which included a surfactant.
(§4) At the same time, plants selected from these crop and weed species and also chickweed (common chickweed, Stellaria media), kochia (Kochia scoparia), and oat, wild (wild oat, Avena fatua), were planted in pots containing Redi-Earth® planting medium (Scotts Company, 14111 Scottslawn Road, Marysville, Ohio 43041) comprising spaghnum peat moss, vermiculite, wetting agent and starter nutrients and treated with postemergence applications of test chemicals formulated in the same manner. Plants ranged in height from 2 to 18 cm (1- to 4-leaf stage) for postemergence treatments. Treated plants and controls were maintained in a greenhouse for 13 to 15 d, after which time all species were compared to controls and visually evaluated. Plant response ratings, summarized in Table C, are based on a scale of 0 to 100 where 0 is no effect and 100 is complete control. A dash (-) response means no test result.

[9] = test system: nutsedge, yellow (yellow nutsedge, Cyperus esculentus); test: as above
Source text: as §3, §4

[10] = test system: soybean (Glycine max); test: as above
Source text: as §3, §4

[11] = test system: galium (catchweed bedstraw, Galium aparine); test: Test A greenhouse herbicide test, postemergence
Procedure, shortened: (§5)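 Visual injury score, 0 (no effect) to 100 (complete control), versus untreated controls roughly 10 d after postemergence spray; plants at one- to two-leaf stage, 2 to 10 cm tall, in loam soil and sand, kept in greenhouse.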

[12] = test system: blackgrass (Alopecurus myosuroides); test: Test A greenhouse herbicide test, postemergence
Procedure, shortened: as §5

[13] = Postemergence, 31 g ai/ha, 0 to 100 scale (0 no effect, 100 complete control)
[14] = Postemergence, 125 g ai/ha, scale 0 to 100, 0 is no effect, 100 is complete control
[15] = Postemergence, 250 g ai/ha, scale 0 to 100, 0 no effect, 100 complete control, 13 to 15 d
[16] = postemergence, 62 g ai/ha, scale 0 to 100, 0 no effect, 100 complete control
[17] = Preemergence, 31 g ai/ha, scale 0 to 100, 0 is no effect, 100 is complete control
[18] = Preemergence, 62 g ai/ha, scale 0 to 100, 0 is no effect, 100 is complete control
[19] = Preemergence, 125 g ai/ha, scale 0 to 100, 0 is no effect, 100 is complete control
[20] = Preemergence, 250 g ai/ha, scale 0 to 100, 0 no effect, 100 complete control
[21] = Postemergence, 8 g ai/ha, scale 0 to 100 (0 no effect, 100 complete control)
[22] = Postemergence, 16 g ai/ha, scale 0 to 100 (0 no effect, 100 complete control)
[23] = Postemergence, 31 g ai/ha, scale 0 to 100 (0 no effect, 100 complete control)
[24] = 4 g ai/ha, preemergence, visual rating, scale 0 to 100 (0 no effect, 100 complete control), 13 to 15 d
[25] = Preemergence, 16 g ai/ha, scale 0 to 100, 0 is no effect, 100 is complete control
[26] = 125 g ai/ha, 0 to 100 scale where 0 is no effect and 100 is complete control
[27] = 500 g ai/ha, visual rating after approx. 10 d, 0 to 100 scale (0 no effect, 100 complete control)
[28] = Postemergence, 62 g ai/ha, 0 to 100 scale (0 no effect, 100 complete control)
[29] = postemergence, 125 g ai/ha, scale 0 to 100, 0 no effect, 100 complete control

With Cc1cc(C)c2sc(C)c(-c3c(O)c(C)nn(C)c3=O)c2c1 [Compound 2, 5-hydroxy-2,6-dimethyl-4-(2,5,7-trimethylbenzo[b]thien-3-yl)-3(2H)-pyridazinone] the “Oat, Wild plant response rating” value [1, 13] was 75, the “Plant response rating, Oat, Wild” value [1, 14] was 90 and the “Plant response rating, Oat, Wild” value [1, 15] was 85. The “Oat, Wild plant response rating” value [1, 16] was 80, the “Chickweed plant response rating” value [2, 13] was 95 and the “Plant response rating, Chickweed” value [2, 14] was 95. The “Plant response rating, Chickweed” value [2, 15] was 98, the “Chickweed plant response rating” value [2, 16] was 95 and the “Kochia plant response rating” value [3, 13] was 50. The “Plant response rating, Kochia” value [3, 14] was 65, the “Plant response rating, Kochia” value [3, 15] was 75 and the “Kochia plant response rating” value [3, 16] was 55. For the same compound, the pest or weed control at 250 g/ha ([4]; Echinochloa crus-galli, 360 h, read-out: Plant response rating, Barnyardgrass) was 30%, the plant injury at 250 g/ha ([5]; Oryza sativa, 360 h, read-out: Plant response rating, Rice) was 35% and the pest or weed control at 250 g/ha ([6]; Heteranthera limosa, 360 h, read-out: Plant response rating, Ducksalad) was 80%. The pest or weed control at 250 g/ha ([7]; Cyperus difformis, 360 h, read-out: Plant response rating, Sedge, Umbrella) was 85%, the “Johnsongrass plant response rating” value [8, 13] was 5 and the “Plant response rating, Johnsongrass” value [8, 14] was 5. For the same compound, the “Plant response rating, Johnsongrass” value [8, 15] was 5, the “Plant response rating, Johnsongrass” value [8, 17] was 0 and the “Plant response rating, Johnsongrass” value [8, 18] was 0. The “Plant response rating, Johnsongrass” value [8, 19] was 5, the “Johnsongrass plant response rating” value [8, 20] was 5 and the “Johnsongrass plant response rating” value [8, 16] was 5. For the same compound, the “Nutsedge, Yellow plant response rating” value [9, 13] was 80, the “Plant response rating, Nutsedge, Yellow” value [9, 14] was 98 and the “Plant response rating, Nutsedge, Yellow” value [9, 15] was 98. For the same compound, the “Plant response rating, Nutsedge, Yellow” value [9, 17] was 30, the “Plant response rating, Nutsedge, Yellow” value [9, 18] was 45 and the “Plant response rating, Nutsedge, Yellow” value [9, 19] was 70. The “Nutsedge, Yellow plant response rating” value [9, 20] was 95, the “Nutsedge, Yellow plant response rating” value [9, 16] was 95 and the “Soybean plant response rating” value [10, 13] was 0. The “Plant response rating, Soybean” value [10, 14] was 50, the “Plant response rating, Soybean” value [10, 15] was 5 and the “Plant response rating, Soybean” value [10, 18] was 0. For the same compound, the “Plant response rating, Soybean” value [10, 19] was 0, the “Soybean plant response rating” value [10, 20] was 0 and the “Soybean plant response rating” value [10, 16] was 0.

Cc1ccc2ccc(Cl)cc2c1-c1c(O)c(C)nn(C)c1=O [Compound 144] was tested, and the “Oat, Wild plant response rating” value [1, 21] was 80, the “Plant response rating, Oat, Wild” value [1, 21] was 90 and the “Plant response rating, Oat, Wild” value [1, 22] was 90. For the same compound, the “Plant response rating, Oat, Wild” value [1, 23] was 90, the “Kochia plant response rating” value [3, 21] was 90 and the “Plant response rating, Kochia” value [3, 21] was 90. The “Plant response rating, Kochia” value [3, 22] was 98, the “Plant response rating, Kochia” value [3, 23] was 98 and the “Plant response rating, Barnyardgrass” value [4] was 30. The “Plant response rating, Rice” value [5] was 30, the “Plant response rating, Ducksalad” value [6] was 40 and the “Plant response rating, Sedge, Umbrella” value [7] was 0. The “Plant response rating, Johnsongrass” value [8, 24] was 0, the “Johnsongrass plant response rating” value [8, 21] was 20 and the “Plant response rating, Johnsongrass” value [8, 21] was 10. For the same compound, the “Plant response rating, Johnsongrass” value [8, 22] was 10, the “Plant response rating, Johnsongrass” value [8, 23] was 10 and the “Plant response rating, Johnsongrass” value [8, 25] was 25. The “Plant response rating, Johnsongrass” value [8, 17] was 60, the “Plant response rating, Nutsedge, Yellow” value [9, 24] was 5 and the “Nutsedge, Yellow plant response rating” value [9, 21] was 10. For the same compound, the “Plant response rating, Nutsedge, Yellow” value [9, 21] was 60, the “Plant response rating, Nutsedge, Yellow” value [9, 22] was 60 and the “Plant response rating, Nutsedge, Yellow” value [9, 23] was 75. For the same compound, the “Plant response rating, Nutsedge, Yellow” value [9, 25] was 25, the “Plant response rating, Nutsedge, Yellow” value [9, 17] was 40 and the “Plant response rating, Soybean” value [10, 24] was 10. For the same compound, the “Plant response rating, Soybean” value [10, 21] was 40, the “Soybean plant response rating” value [10, 21] was 45 and the “Plant response rating, Soybean” value [10, 22] was 25. For the same compound, the “Plant response rating, Soybean” value [10, 23] was 25, the “Plant response rating, Soybean” value [10, 25] was 0 and the “Plant response rating, Soybean” value [10, 17] was 5. For the same compound, the “Plant response rating, Galium” value [11, 26] was 100, the “Plant response rating, Galium” value [11, 27] was 100 and the “Plant response rating, Blackgrass” value [12, 26] was 90. For the same compound, the “Plant response rating, Blackgrass” value [12, 27] was 100.

For COC(=O)Oc1c(C)nn(C)c(=O)c1-c1ccc(Br)c2ccccc12 [Compound 145], the “Plant response rating, Oat, Wild” value [1, 23] was 95, the “Oat, Wild plant response rating” value [1, 28] was 95 and the “Plant response rating, Oat, Wild” value [1, 15] was 100. The “Oat, Wild plant response rating” value [1, 29] was 95, the “Plant response rating, Kochia” value [3, 23] was 95 and the “Kochia plant response rating” value [3, 28] was 98. For the same compound, the “Plant response rating, Kochia” value [3, 15] was 100, the “Kochia plant response rating” value [3, 29] was 100 and the “Plant response rating, Barnyardgrass” value [4] was 0. The “Plant response rating, Rice” value [5] was 0, the “Plant response rating, Ducksalad” value [6] was 0 and the “Plant response rating, Sedge, Umbrella” value [7] was 0. For the same compound, the “Plant response rating, Johnsongrass” value [8, 23] was 10, the “Johnsongrass plant response rating” value [8, 28] was 10 and the “Plant response rating, Johnsongrass” value [8, 15] was 20. The “Plant response rating, Johnsongrass” value [8, 17] was 10, the “Plant response rating, Johnsongrass” value [8, 18] was 5 and the “Plant response rating, Johnsongrass” value [8, 19] was 5. For the same compound, the “Johnsongrass plant response rating” value [8, 20] was 5, the “Johnsongrass plant response rating” value [8, 29] was 20 and the “Plant response rating, Nutsedge, Yellow” value [9, 23] was 70. For the same compound, the “Nutsedge, Yellow plant response rating” value [9, 28] was 90, the “Plant response rating, Nutsedge, Yellow” value [9, 15] was 95 and the “Plant response rating, Nutsedge, Yellow” value [9, 17] was 35. For the same compound, the “Plant response rating, Nutsedge, Yellow” value [9, 18] was 85, the “Plant response rating, Nutsedge, Yellow” value [9, 19] was 95 and the “Nutsedge, Yellow plant response rating” value [9, 20] was 90. The “Nutsedge, Yellow plant response rating” value [9, 29] was 85, the “Plant response rating, Soybean” value [10, 23] was 40 and the “Soybean plant response rating” value [10, 28] was 40. The “Plant response rating, Soybean” value [10, 15] was 70, the “Plant response rating, Soybean” value [10, 17] was 0 and the “Plant response rating, Soybean” value [10, 18] was 55. The “Plant response rating, Soybean” value [10, 19] was 75, the “Soybean plant response rating” value [10, 20] was 80 and the “Soybean plant response rating” value [10, 29] was 55. The “Plant response rating, Galium” value [11, 26] was 100, the “Plant response rating, Galium” value [11, 27] was 100 and the “Plant response rating, Blackgrass” value [12, 26] was 40. For the same compound, the “Plant response rating, Blackgrass” value [12, 27] was 80.

From patent US10597388B2, “Pyridazinone herbicides” (FMC CORPORATION, priority 2014, dated 2020)
